Data taken from the supplement of paper PMC6045584.
± gives the standard deviation of the averaged measurements.

How the values were obtained:
AZD4547 = compound: COc1cc(CCc2cc(NC(=O)c3ccc(N4CC(C)NC(C)C4)cc3)n[nH]2)cc(OC)c1 [AZD4547]; assay: surviving fraction relative to DMSO-only wells; higher = less growth inhibition; conditions: exposure time: 5 days
How it was run: (§1)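 Viability was determined by CellTiter-Glo luminescence, expressed as surviving fraction normalised to the median of DMSO-only wells. The cells were log-phase tumour cell lines seeded at 250–500 per well in 384-well plates and, after 24 hours, exposed continuously for five days to inhibitors at 0.5, 1, 5, 10, 50, 100, 500 and 1000 nM. Three screens per line were run, keeping only lines with replicate Pearson r >0.7 and median Z' >0.3.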

SUNITINIB = compound: CCN(CC)CCNC(=O)c1c(C)[nH]c(/C=C2\C(=O)Nc3ccc(F)cc32)c1C [SUNITINIB]; assay: as above; conditions: exposure time: 5 days
How it was run: as §1

Test System | surviving fraction (AZD4547; 0.5 nM) | surviving fraction (AZD4547; 1 nM) | surviving fraction (AZD4547; 5 nM) | surviving fraction (AZD4547; 10 nM) | surviving fraction (AZD4547; 50 nM) | surviving fraction (AZD4547; 100 nM) | surviving fraction (AZD4547; 500 nM) | surviving fraction (AZD4547; 1000 nM) | surviving fraction (SUNITINIB; 0.5 nM) | surviving fraction (SUNITINIB; 10 nM) | surviving fraction (SUNITINIB; 50 nM) | surviving fraction (SUNITINIB; 500 nM) | surviving fraction (SUNITINIB; 1000 nM) | surviving fraction (SUNITINIB; 1 nM) | surviving fraction (SUNITINIB; 5 nM) | surviving fraction (SUNITINIB; 100 nM)
MDAMB453 BREAST | 1.02 ± 0.074 | 1.094 ± 0.01 | 1.106 ± 0.004 | 1.11 ± 0.056 | 1.1 ± 0.019 | 0.825 ± 0.021 | 0.565 ± 0.021 | 0.585 ± 0.025 | 0.982 ± 0.0066 | 1.03 ± 0.026 | 1.022 ± 0.005 | 0.986 ± 0.059 | 0.724 ± 0.047 | – | – | –
MDAMB157 BREAST | 0.981 ± 0.036 | 0.967 ± 0.12 | 0.932 ± 0.069 | 0.768 ± 0.035 | 0.642 ± 0.13 | 0.537 ± 0.048 | 0.562 ± 0.1 | 0.374 ± 0.039 | 0.794 ± 0.024 | 0.869 ± 0.12 | 0.83 ± 0.032 | 0.613 ± 0.064 | 0.404 ± 0.062 | 0.802 ± 0.08 | 0.87 ± 0.07 | 0.74 ± 0.072
HELA CERVIX | 1.04 ± 0.023 | 1.09 ± 0.035 | 1.07 ± 0.036 | 1.1 ± 0.032 | 1.08 ± 0.013 | 1.07 ± 0.03 | 1.08 ± 0.092 | 1.11 ± 0.13 | 0.906 ± 0.047 | 0.853 ± 0.069 | 0.995 ± 0.044 | 1.03 ± 0.035 | 0.745 ± 0.05 | 0.892 ± 0.046 | – | 0.948 ± 0.052
LM7 BONE | 0.914 ± 0.098 | 0.959 ± 0.086 | 1.07 ± 0.044 | 0.982 ± 0.048 | 0.939 ± 0.064 | 0.985 ± 0.12 | 0.762 ± 0.034 | 0.571 ± 0.086 | 0.786 ± 0.068 | 0.731 ± 0.05 | 0.93 ± 0.039 | 0.342 ± 0.009 | 0.177 ± 0.018 | 0.767 ± 0.028 | 0.81 ± 0.087 | 0.794 ± 0.016
SCC90 HEADNECK | 1.07 ± 0.095 | 1.06 ± 0.11 | 1.04 ± 0.17 | 1.09 ± 0.14 | 1.08 ± 0.038 | 1.15 ± 0.055 | 1.04 ± 0.043 | 1.1 ± 0.11 | – | 0.887 ± 0.064 | – | 0.819 ± 0.06 | 0.522 ± 0.052 | 0.814 ± 0.086 | – | 1.25 ± 0.17
OSHN BONE | 1.06 ± 0.02 | 1.09 ± 0.044 | 1.09 ± 0.044 | 1.11 ± 0.048 | 1.07 ± 0.023 | 1.1 ± 0.044 | 1.07 ± 0.042 | 1.06 ± 0.011 | 0.9083 ± 0.0045 | 0.8813 ± 0.0055 | – | 0.86 ± 0.019 | 0.42 ± 0.026 | 0.906 ± 0.0096 | – | 0.962 ± 0.017
HCT15 LARGE INTESTINE | 1.03 ± 0.026 | 1.07 ± 0.029 | 1.03 ± 0.042 | 1.07 ± 0.048 | 1.03 ± 0.042 | 1.08 ± 0.033 | 1.1 ± 0.044 | 1.1 ± 0.041 | 0.882 ± 0.015 | 0.449 ± 0.021 | 0.952 ± 0.049 | 0.855 ± 0.08 | 0.119 ± 0.015 | 0.73 ± 0.028 | 0.816 ± 0.034 | –
MFM223 BREAST | 1.02 ± 0.11 | 1.03 ± 0.034 | 0.616 ± 0.056 | 0.374 ± 0.041 | 0.244 ± 0.018 | 0.254 ± 0.015 | 0.298 ± 0.015 | 0.3 ± 0.021 | 0.75 ± 0.033 | 0.707 ± 0.041 | 1.01 ± 0.11 | 0.398 ± 0.013 | 0.247 ± 0.015 | 0.758 ± 0.032 | 0.7412 ± 0.002 | 0.832 ± 0.058
HOS BONE | 1 ± 0.027 | 1.04 ± 0.011 | 1.04 ± 0.037 | 1.1 ± 0.042 | 1 ± 0.019 | 0.987 ± 0.021 | 0.9247 ± 0.0092 | 0.802 ± 0.039 | 0.921 ± 0.015 | 0.884 ± 0.021 | 0.954 ± 0.01 | 0.786 ± 0.017 | 0.471 ± 0.0095 | 0.937 ± 0.025 | 0.8943 ± 0.0061 | 0.9297 ± 0.009
SNU475 LIVER | 0.956 ± 0.021 | 1.02 ± 0.059 | 0.95 ± 0.024 | 0.972 ± 0.056 | 0.925 ± 0.047 | 0.948 ± 0.019 | 0.939 ± 0.053 | 0.894 ± 0.012 | – | 0.371 ± 0.031 | – | 0.752 ± 0.022 | 0.193 ± 0.01 | 0.729 ± 0.052 | 0.814 ± 0.049 | 0.8163 ± 0.0045
SG31 HEADNECK | 1.21 ± 0.24 | 0.886 ± 0.12 | 0.994 ± 0.15 | 1.01 ± 0.17 | 0.836 ± 0.07 | 0.856 ± 0.12 | 0.883 ± 0.049 | 0.958 ± 0.051 | 0.778 ± 0.067 | 0.419 ± 0.04 | 0.93 ± 0.06 | 0.797 ± 0.13 | 0.343 ± 0.017 | 0.858 ± 0.037 | 0.884 ± 0.12 | 0.962 ± 0.14
